{"source": "paper PMC8187944", "about": "“Discovery of Potent EGFR Inhibitors With 6-Arylureido-4-anilinoquinazoline Derivatives” (Frontiers in Pharmacology, 2021)", "key": {"Aqueous solubility": {"assay": "Aqueous solubility", "type": "physicochemical", "conditions": "in words"}, "FAK": {"target": "FAK (Homo sapiens, UniProt Q05397)", "assay": "Kinase spectrum assay (ADP-Glo)", "conditions": "remaining enzyme activity at 1 μm compound"}, "CAMK2α": {"target": "CAMK2α (Homo sapiens, UniProt Q9UQM7)", "assay": "Kinase spectrum assay (ADP-Glo)", "conditions": "remaining enzyme activity at 1 μm compound"}, "Chk1": {"target": "Chk1 (Homo sapiens, UniProt O14757)", "assay": "Kinase spectrum assay (ADP-Glo)", "conditions": "remaining enzyme activity at 1 μm compound"}, "CLK3": {"target": "CLK3 (Homo sapiens, UniProt P49761)", "assay": "Kinase spectrum assay (ADP-Glo)", "conditions": "remaining enzyme activity at 1 μm compound"}, "FGFR2": {"target": "FGFR2 (Homo sapiens, UniProt P21802)", "assay": "Kinase spectrum assay (ADP-Glo)", "conditions": "remaining enzyme activity at 1 μm compound"}, "MELK": {"target": "MELK (Homo sapiens, UniProt Q14680)", "sequence (Q14680 whole entry)": "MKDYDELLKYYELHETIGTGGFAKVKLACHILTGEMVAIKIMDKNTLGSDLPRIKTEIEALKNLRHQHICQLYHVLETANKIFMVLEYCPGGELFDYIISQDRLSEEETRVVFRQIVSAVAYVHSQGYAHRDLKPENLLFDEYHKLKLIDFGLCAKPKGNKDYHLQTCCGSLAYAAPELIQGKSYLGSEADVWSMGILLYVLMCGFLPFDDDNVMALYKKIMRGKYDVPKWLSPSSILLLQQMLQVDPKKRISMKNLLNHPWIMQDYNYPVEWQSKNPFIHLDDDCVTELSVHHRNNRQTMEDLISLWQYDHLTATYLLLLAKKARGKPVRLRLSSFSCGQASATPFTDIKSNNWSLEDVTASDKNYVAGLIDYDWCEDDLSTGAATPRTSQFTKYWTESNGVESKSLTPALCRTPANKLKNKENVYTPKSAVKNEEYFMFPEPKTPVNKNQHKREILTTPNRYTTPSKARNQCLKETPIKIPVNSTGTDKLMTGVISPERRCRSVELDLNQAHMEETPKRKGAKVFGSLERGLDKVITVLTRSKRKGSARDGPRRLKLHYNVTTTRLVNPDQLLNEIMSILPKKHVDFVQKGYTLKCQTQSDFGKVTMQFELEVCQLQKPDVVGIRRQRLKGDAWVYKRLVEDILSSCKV", "assay": "Kinase spectrum assay (ADP-Glo)", "conditions": "remaining enzyme activity at 1 μm compound"}, "other protein kinases": {"test_system": "other protein kinases", "assay": "Kinase spectrum assay (ADP-Glo), text summary for kinases other than EGFR", "conditions": "all panel kinases other than EGFR, at 1.0 μm compound"}, "PKACα": {"target": "PKACα (Homo sapiens, UniProt P17612)", "assay": "Kinase spectrum assay (ADP-Glo)", "conditions": "remaining enzyme activity at 1 μm compound"}, "ERK2": {"target": "ERK2 (Homo sapiens, UniProt P28482)", "sequence (P28482 whole entry)": "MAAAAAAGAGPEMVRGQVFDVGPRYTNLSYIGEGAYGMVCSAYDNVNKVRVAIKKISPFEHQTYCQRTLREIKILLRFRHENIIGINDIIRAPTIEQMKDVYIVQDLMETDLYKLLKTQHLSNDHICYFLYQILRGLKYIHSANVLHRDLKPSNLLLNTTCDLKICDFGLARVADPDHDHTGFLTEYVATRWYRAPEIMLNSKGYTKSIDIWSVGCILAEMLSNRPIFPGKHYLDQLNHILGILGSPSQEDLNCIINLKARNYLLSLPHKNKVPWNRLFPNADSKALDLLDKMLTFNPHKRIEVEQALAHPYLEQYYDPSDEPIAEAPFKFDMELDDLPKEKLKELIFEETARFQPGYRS", "assay": "Kinase spectrum assay (ADP-Glo)", "conditions": "remaining enzyme activity at 1 μm compound"}, "MAPKAPK2": {"target": "MAPKAPK2 (Homo sapiens, UniProt P49137)", "assay": "Kinase spectrum assay (ADP-Glo)", "conditions": "remaining enzyme activity at 1 μm compound"}, "PKCa": {"target": "PKCa (Homo sapiens, UniProt P17252)", "assay": "Kinase spectrum assay (ADP-Glo)", "conditions": "remaining enzyme activity at 1 μm compound"}, "LCK": {"target": "LCK (Homo sapiens, UniProt P06239)", "sequence (P06239 whole entry)": "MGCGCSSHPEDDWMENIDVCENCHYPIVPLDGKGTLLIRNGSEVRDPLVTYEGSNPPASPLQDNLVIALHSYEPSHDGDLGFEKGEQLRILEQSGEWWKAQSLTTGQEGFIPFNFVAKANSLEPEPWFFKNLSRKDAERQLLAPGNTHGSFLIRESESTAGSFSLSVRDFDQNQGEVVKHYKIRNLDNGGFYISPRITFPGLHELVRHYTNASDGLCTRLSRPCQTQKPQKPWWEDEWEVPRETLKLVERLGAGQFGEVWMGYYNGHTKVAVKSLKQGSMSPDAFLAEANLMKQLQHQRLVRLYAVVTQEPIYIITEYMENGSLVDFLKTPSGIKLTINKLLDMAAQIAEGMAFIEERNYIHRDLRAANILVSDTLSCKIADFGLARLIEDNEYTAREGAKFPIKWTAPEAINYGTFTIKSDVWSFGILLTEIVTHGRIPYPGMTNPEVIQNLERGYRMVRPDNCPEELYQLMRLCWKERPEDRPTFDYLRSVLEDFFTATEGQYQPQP", "assay": "Kinase spectrum assay (ADP-Glo)", "conditions": "remaining enzyme activity at 1 μm compound"}, "PDK1": {"target": "PDK1 (Homo sapiens, UniProt O15530)", "sequence (O15530 whole entry)": "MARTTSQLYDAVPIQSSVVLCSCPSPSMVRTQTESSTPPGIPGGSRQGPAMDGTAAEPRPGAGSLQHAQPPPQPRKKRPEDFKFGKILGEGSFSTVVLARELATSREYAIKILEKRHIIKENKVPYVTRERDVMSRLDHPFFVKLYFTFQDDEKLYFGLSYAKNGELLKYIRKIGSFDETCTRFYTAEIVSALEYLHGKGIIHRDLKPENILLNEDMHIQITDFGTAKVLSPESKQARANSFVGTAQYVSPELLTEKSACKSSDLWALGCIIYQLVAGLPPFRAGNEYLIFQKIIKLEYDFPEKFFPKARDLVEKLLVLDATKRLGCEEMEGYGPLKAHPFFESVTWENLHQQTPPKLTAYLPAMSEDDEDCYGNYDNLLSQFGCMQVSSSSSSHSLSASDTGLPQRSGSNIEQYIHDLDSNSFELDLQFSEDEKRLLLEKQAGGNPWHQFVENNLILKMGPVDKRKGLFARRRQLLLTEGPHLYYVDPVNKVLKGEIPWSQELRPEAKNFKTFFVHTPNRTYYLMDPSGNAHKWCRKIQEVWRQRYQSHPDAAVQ", "assay": "Kinase spectrum assay (ADP-Glo)", "conditions": "remaining enzyme activity at 1 μm compound"}, "B-raf": {"target": "B-raf (Homo sapiens, UniProt P15056)", "assay": "Kinase spectrum assay (ADP-Glo)", "conditions": "remaining enzyme activity at 1 μm compound"}, "CDK2": {"target": "CDK2 (Homo sapiens, UniProt P24941)", "assay": "Kinase spectrum assay (ADP-Glo)", "conditions": "remaining enzyme activity at 1 μm compound"}, "HER4": {"target": "HER4 (Homo sapiens, UniProt Q15303)", "assay": "Kinase spectrum assay (ADP-Glo)", "conditions": "remaining enzyme activity at 1 μm compound"}, "GSK3β": {"target": "GSK3β (Homo sapiens, UniProt P49841)", "assay": "Kinase spectrum assay (ADP-Glo)", "conditions": "remaining enzyme activity at 1 μm compound"}, "IRAK4": {"target": "IRAK4 (Homo sapiens, UniProt Q9NWZ3)", "assay": "Kinase spectrum assay (ADP-Glo)", "conditions": "remaining enzyme activity at 1 μm compound"}, "SRC": {"target": "SRC (Homo sapiens, UniProt P12931)", "assay": "Kinase spectrum assay (ADP-Glo)", "conditions": "remaining enzyme activity at 1 μm compound"}, "TRKA": {"target": "TRKA (Homo sapiens, UniProt P04629)", "assay": "Kinase spectrum assay (ADP-Glo)", "conditions": "remaining enzyme activity at 1 μm compound"}, "JNK1": {"target": "JNK1 (Homo sapiens, UniProt P45983)", "assay": "Kinase spectrum assay (ADP-Glo)", "conditions": "remaining enzyme activity at 1 μm compound"}, "ROCK1": {"target": "ROCK1 (Homo sapiens, UniProt Q13464)", "assay": "Kinase spectrum assay (ADP-Glo)", "conditions": "remaining enzyme activity at 1 μm compound"}, "EGFR": {"target": "T1, EGFR (Homo sapiens, UniProt P00533)", "T1 construct": "2 μl (50 ng/ml) of EGFR kinase", "T1 sequence (P00533 25-1210)": "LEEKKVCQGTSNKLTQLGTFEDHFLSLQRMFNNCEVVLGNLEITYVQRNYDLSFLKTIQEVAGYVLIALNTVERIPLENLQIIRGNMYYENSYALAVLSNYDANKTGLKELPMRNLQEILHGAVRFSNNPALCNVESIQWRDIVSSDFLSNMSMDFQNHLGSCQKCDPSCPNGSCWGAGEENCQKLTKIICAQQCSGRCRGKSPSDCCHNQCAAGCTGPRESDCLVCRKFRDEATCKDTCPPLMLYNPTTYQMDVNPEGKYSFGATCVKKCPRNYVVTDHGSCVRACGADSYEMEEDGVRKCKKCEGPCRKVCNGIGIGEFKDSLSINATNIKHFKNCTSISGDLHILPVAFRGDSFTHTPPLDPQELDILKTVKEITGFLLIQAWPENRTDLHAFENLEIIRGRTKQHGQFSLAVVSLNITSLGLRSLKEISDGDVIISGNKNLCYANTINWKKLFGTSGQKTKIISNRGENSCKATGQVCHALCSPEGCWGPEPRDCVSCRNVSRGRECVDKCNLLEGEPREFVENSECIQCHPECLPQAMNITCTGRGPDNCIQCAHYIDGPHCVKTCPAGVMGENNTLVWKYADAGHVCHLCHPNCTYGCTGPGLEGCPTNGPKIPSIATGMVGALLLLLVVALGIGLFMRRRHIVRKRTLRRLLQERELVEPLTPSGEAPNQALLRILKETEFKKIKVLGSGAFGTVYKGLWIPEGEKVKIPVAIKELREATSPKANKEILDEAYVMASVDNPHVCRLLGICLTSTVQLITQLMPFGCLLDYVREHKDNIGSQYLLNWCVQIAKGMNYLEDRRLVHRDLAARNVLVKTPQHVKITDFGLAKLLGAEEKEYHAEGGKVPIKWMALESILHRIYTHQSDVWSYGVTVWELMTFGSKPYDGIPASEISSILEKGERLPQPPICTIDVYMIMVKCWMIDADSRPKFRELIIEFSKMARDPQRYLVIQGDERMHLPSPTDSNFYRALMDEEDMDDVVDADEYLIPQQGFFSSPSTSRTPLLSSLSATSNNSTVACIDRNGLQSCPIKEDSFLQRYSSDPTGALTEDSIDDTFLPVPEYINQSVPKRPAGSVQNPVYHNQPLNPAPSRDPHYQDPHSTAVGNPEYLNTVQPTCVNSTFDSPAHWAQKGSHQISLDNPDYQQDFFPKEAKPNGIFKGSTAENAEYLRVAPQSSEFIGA", "assay": "EGFR kinase inhibition, ADP-Glo assay", "type": "biochemical", "experimental": "The EGFR kinase inhibition activities of the target compounds were evaluated by the ADP-Glo™ assay. The ADP-Glo™ kinase detection kit is a luminescence kinase detection approach that detects the amount of ADP produced by the kinase reaction. After ADP is converted into ATP, ATP can be used as the substrate of the luciferase-catalyzed reaction to generate an optical signal, which is positively correlated with kinase activity. […] The above-prepared systems were sealed and incubated at room temperature for 2 h, and 5 μl of ADP-GLO was added to terminate the kinase reaction. Then, the culture plate was sealed and incubated in a thermostatic oscillator for 40 min to fully consume the remaining ATP. The luciferase/luciferin reaction was adopted to determine the newly generated ATP level."}, "Abl": {"target": "Abl (Homo sapiens, UniProt P00519)", "assay": "Kinase spectrum assay (ADP-Glo)", "conditions": "remaining enzyme activity at 1 μm compound"}, "Csk": {"target": "Csk (Homo sapiens, UniProt P41240)", "sequence (P41240 whole entry)": "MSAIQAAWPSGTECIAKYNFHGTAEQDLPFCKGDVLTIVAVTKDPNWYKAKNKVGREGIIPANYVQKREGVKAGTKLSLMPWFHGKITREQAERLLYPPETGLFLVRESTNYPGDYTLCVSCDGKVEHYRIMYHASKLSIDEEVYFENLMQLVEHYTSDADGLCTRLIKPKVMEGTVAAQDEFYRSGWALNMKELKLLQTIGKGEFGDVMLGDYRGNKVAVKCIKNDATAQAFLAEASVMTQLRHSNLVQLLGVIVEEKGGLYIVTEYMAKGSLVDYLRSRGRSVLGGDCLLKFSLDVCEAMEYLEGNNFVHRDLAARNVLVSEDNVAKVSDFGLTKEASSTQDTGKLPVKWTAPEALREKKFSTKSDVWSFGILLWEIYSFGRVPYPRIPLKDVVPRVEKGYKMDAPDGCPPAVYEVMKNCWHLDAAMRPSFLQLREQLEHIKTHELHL", "assay": "Kinase spectrum assay (ADP-Glo)", "conditions": "remaining enzyme activity at 1 μm compound"}, "ASK1": {"target": "ASK1 (Homo sapiens, UniProt Q99683)", "assay": "Kinase spectrum assay (ADP-Glo)", "conditions": "remaining enzyme activity at 1 μm compound"}, "JAK3": {"target": "JAK3 (Homo sapiens, UniProt P52333)", "assay": "Kinase spectrum assay (ADP-Glo)", "conditions": "remaining enzyme activity at 1 μm compound"}, "Syk": {"target": "Syk (Homo sapiens, UniProt P43405)", "assay": "Kinase spectrum assay (ADP-Glo)", "conditions": "remaining enzyme activity at 1 μm compound"}, "FLT3": {"target": "FLT3 (Homo sapiens, UniProt P36888)", "assay": "Kinase spectrum assay (ADP-Glo)", "conditions": "remaining enzyme activity at 1 μm compound"}, "KDR": {"target": "KDR (Homo sapiens, UniProt P35968)", "sequence (P35968 20-1356)": "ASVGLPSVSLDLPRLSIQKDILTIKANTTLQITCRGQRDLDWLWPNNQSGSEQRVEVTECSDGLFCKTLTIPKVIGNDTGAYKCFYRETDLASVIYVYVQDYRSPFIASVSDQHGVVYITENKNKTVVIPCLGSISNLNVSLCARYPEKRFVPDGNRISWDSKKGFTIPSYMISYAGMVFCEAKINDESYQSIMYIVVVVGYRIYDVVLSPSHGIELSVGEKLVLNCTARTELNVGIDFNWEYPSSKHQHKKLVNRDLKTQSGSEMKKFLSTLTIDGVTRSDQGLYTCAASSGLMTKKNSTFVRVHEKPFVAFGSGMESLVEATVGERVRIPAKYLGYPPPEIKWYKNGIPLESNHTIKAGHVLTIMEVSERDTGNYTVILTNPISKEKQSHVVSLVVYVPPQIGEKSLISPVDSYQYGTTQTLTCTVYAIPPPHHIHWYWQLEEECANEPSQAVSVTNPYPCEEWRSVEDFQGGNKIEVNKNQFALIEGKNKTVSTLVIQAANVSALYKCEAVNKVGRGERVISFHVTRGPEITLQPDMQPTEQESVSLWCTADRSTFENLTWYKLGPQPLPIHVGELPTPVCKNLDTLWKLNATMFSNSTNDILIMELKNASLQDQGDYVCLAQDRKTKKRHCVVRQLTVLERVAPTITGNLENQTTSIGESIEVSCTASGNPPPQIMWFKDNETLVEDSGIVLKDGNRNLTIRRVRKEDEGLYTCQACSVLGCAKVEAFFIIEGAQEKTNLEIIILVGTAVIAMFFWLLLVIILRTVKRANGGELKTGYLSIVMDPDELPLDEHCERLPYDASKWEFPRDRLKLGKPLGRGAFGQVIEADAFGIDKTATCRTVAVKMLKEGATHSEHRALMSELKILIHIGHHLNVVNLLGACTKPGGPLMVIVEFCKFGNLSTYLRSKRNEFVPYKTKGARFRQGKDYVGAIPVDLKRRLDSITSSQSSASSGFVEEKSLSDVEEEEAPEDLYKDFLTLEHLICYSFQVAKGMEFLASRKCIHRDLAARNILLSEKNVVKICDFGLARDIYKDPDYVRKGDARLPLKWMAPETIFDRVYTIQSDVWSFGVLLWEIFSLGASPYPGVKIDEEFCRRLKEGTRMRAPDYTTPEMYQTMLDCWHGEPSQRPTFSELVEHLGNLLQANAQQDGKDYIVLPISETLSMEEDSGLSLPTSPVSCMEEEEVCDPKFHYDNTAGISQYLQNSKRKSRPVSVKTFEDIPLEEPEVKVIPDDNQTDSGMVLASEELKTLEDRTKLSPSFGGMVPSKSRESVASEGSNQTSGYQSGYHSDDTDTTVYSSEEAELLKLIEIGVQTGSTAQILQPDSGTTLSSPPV", "assay": "Kinase spectrum assay (ADP-Glo)", "conditions": "remaining enzyme activity at 1 μm compound"}}, "data": [{"smiles": "O=C(Nc1ccc(Cl)c(C(F)(F)F)c1)Nc1ccc2ncnc(Nc3cccc(Br)c3)c2c1", "note": "[Compound 7i]", "values": [{"measurement": "aqueous solubility", "setting": "Aqueous solubility", "result": "soluble"}, {"measurement": "Enzyme activity % FAK", "setting": "FAK", "result": "81.70 ± 2.75", "unit": "%"}, {"measurement": "Enzyme activity % CAMK2α", "setting": "CAMK2α", "result": "72.67 ± 2.92", "unit": "%"}, {"measurement": "Enzyme activity % Chk1", "setting": "Chk1", "result": "75.98 ± 6.72", "unit": "%"}, {"measurement": "Enzyme activity % CLK3", "setting": "CLK3", "result": "86.80 ± 1.90", "unit": "%"}, {"measurement": "Enzyme activity % FGFR2", "setting": "FGFR2", "result": "91.07 ± 8.02", "unit": "%"}, {"measurement": "Enzyme activity % MELK", "setting": "MELK", "result": "78.83 ± 6.55", "unit": "%"}, {"measurement": "enzyme activity of the other protein kinases", "setting": "other protein kinases", "result": "> 50", "unit": "%"}, {"measurement": "Enzyme activity % PKACα", "setting": "PKACα", "result": "86.02 ± 3.75", "unit": "%"}, {"measurement": "Enzyme activity % ERK2", "setting": "ERK2", "result": "97.31 ± 11.84", "unit": "%"}, {"measurement": "Enzyme activity % MAPKAPK2", "setting": "MAPKAPK2", "result": "86.46 ± 7.38", "unit": "%"}, {"measurement": "Enzyme activity % PKCa", "setting": "PKCa", "result": "77.27 ± 1.18", "unit": "%"}, {"measurement": "Enzyme activity % LCK", "setting": "LCK", "result": "86.84 ± 6.53", "unit": "%"}, {"measurement": "Enzyme activity % PDK1", "setting": "PDK1", "result": "74.18 ± 0.62", "unit": "%"}, {"measurement": "Enzyme activity % B-raf", "setting": "B-raf", "result": "96.68 ± 4.29", "unit": "%"}, {"measurement": "Enzyme activity % CDK2", "setting": "CDK2", "result": "77.40 ± 6.84", "unit": "%"}, {"measurement": "Enzyme activity % HER4", "setting": "HER4", "result": "76.85 ± 0.33", "unit": "%"}, {"measurement": "Enzyme activity % GSK3β", "setting": "GSK3β", "result": "103.71 ± 1.75", "unit": "%"}, {"measurement": "Enzyme activity % IRAK4", "setting": "IRAK4", "result": "86.33 ± 0.56", "unit": "%"}, {"measurement": "Enzyme activity % SRC", "setting": "SRC", "result": "72.10 ± 1.83", "unit": "%"}, {"measurement": "melting point", "result": "268 to 268.9", "unit": "°C"}, {"measurement": "Enzyme activity % TRKA", "setting": "TRKA", "result": "83.52 ± 3.13", "unit": "%"}, {"measurement": "Enzyme activity % JNK1", "setting": "JNK1", "result": "89.43 ± 2.48", "unit": "%"}, {"measurement": "Enzyme activity % ROCK1", "setting": "ROCK1", "result": "78.70 ± 4.00", "unit": "%"}, {"measurement": "IC50", "setting": "EGFR; ADP-Glo, mean ± SD of at least two independent experiments, read-out: Enzymatic inhibition IC50 (nM) EGFR", "result": "17.3 ± 0.54", "unit": "nM"}, {"measurement": "Enzyme activity % EGFR", "setting": "EGFR; remaining enzyme activity at 1 μm compound", "result": "10.52 ± 0.26", "unit": "%"}, {"measurement": "Enzyme activity % Abl", "setting": "Abl", "result": "94.51 ± 0.41", "unit": "%"}, {"measurement": "Enzyme activity % Csk", "setting": "Csk", "result": "93.76 ± 4.09", "unit": "%"}, {"measurement": "Enzyme activity % ASK1", "setting": "ASK1", "result": "62.27 ± 3.02", "unit": "%"}, {"measurement": "Enzyme activity % JAK3", "setting": "JAK3", "result": "82.49 ± 1.82", "unit": "%"}, {"measurement": "Enzyme activity % Syk", "setting": "Syk", "result": "101.13 ± 9.99", "unit": "%"}, {"measurement": "Enzyme activity % FLT3", "setting": "FLT3", "result": "92.18 ± 15.36", "unit": "%"}, {"measurement": "Enzyme activity % KDR", "setting": "KDR", "result": "79.66 ± 2.00", "unit": "%"}]}]}
